# Legend:
# [1] = biological target: Cdk5/p25 (Homo sapiens, UniProt Q00535); assay: Cdk5/p25 radiometric kinase inhibition assay; assay type: biochemical
# [2] = test system: phosphorylated tau at Serine 235 (Ptau235) in primary neurons; assay: inhibition of tau phosphorylation; assay type: cell-based; details: rat primary neurons, 4 h at 37 °C, Ptau235 immunoblot
# Chain of Cdk5/p25 (Q00535 whole entry): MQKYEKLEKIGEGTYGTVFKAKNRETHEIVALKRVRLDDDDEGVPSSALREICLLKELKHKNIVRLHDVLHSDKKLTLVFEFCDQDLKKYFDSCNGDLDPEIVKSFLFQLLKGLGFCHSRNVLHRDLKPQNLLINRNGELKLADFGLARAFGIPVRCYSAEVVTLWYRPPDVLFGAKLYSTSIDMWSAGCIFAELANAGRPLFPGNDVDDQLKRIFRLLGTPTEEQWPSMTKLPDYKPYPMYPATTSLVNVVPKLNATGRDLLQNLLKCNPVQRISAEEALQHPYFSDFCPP
# Chain of Cdk5/p25 (Q15078 99-307 partner limits assumed): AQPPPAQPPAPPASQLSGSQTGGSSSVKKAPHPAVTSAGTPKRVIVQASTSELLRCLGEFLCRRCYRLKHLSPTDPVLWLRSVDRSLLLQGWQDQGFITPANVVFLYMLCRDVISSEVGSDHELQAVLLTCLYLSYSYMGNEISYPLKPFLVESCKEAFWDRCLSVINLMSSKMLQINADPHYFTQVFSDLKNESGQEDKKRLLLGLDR
compound,measurement,setting,value
Nc1nc(Nc2cccnc2)sc1C(=O)c1ccccc1F [Compound 26],binding ΔΔG,[1]; calculated from the listed activities for the pair 26 and 28,-2.6 kcal/mol
same,inhibition of tau phosphorylation (in words),[2],dose-dependent inhibition of tau phosphorylation
CNc1nc(Nc2cccnc2)sc1C(=O)c1ccccc1F [Compound 43],Cdk5/p25 inhibitory activity (in words),[1]; radiometric assay,abolished inhibitory activity

# Reference: publication PMC3062192 (Bioorganic & medicinal chemistry letters, 2011)
